Data on four molecules can be found in publication PMC11676834, “Composition of Triterpene Glycosides of the Far Eastern Sea Cucumber Cucumaria conicospermium Levin et Stepanov; Structure Elucidation of Five Minor Conicospermiumosides A3-1, A3-2, A3-3, A7-1, and A7-2; Cytotoxicity of the Glycosides Against Human Breast Cancer Cell Lines; Structure–Activity …” (Marine Drugs, 2024).

Series [1] can be described thus: in vitro. Type of series: cell-based, human. Conditions: human. An excerpt: (§1) Human erythrocytes were purchased from the Station of Blood Transfusion, Vladivostok. Human mammary epithelial cell line MCF-10A CRL-10317, human breast cancer cell lines T-47D HTB-133, MCF-7 HTB-22, and MDA-MB-231 CRM-HTB-26 were received from ATCC (Manassas, VA, USA). Culturing conditions: medium of RPMI-1640 with 1% penicillin/streptomycin (Biolot, St. Petersburg, Russia) and 10% fetal bovine serum (FBS) (Biolot, St. Petersburg, Russia) for the T-47D cell line; Minimum Essential Medium (MEM) with 1% penicillin/streptomycin sulfate (Biolot, St. Petersburg, Russia) and FBS (Biolot, St. Petersburg, Russia) to a final concentration of 10% for MCF-7 and MDA-MB-231 cells; DMEM/F12 medium with 10% FBS, 20 ng/mL EGF, […] hydrocortisone, 100 ng/mL cholera toxin, 10 μg/mL insulin, and 1% penicillin/streptomycin (BioinnLabs, Rostov-on-Don, Russia) for MCF-10A cell line.
(§2) The concentrations of tested glycosides were 0.1–50 µM; positive controls were cisplatin and okhotoside A1-1 (7). […] Then, the solutions of tested compounds with medium were replaced by 100 µL of fresh medium, and 10 µL of 3-(4,5-dimethylthiazol-2-yl)-2,5-diphenyltetrazolium bromide (MTT) (PanReac, AppliChem, Darmstadt, Germany) stock solution (5 mg/mL) was added to each well and incubated for 4 h, followed by the addition of 100 µL of SDS-HCl solution (1 g SDS/10 mL d-H2O/17 µL 6 N HCl) and further incubated for 18 h. Multiskan FC microplate photometer (Thermo Fisher Scientific, Waltham, MA, USA) was used to measure the absorbance of the converted dye formazan at 570 nm. The concentration caused the 50% cell metabolic activity inhibition (IC50) expresses the cytotoxic activity of each glycoside. The experiments were conducted in triplicate, p ≤ 0.05.

The test system of series [2] is human erythrocytes. Kind of series: Hemolytic activity. Type of series: cell-based. As to conditions: 1 h at 37 °C; for HC50: Erythrocyte, read-out: ED50, Erythrocytes (hemolytic activity). The procedure: Human blood (B(III) Rh+) was used to obtain erythrocytes by centrifuging 450× g three times for 5 min with phosphate-buffered saline (PBS) (pH 7.4) at 4 °C on centrifuge LABOFUGE 400R (Heraeus, Hanau, Germany). Ice-cold PBS (pH 7.4) was used for resuspension of erythrocytes residue to a final optical density of 1.5 at 700 nm, which was kept on ice. Then, 10 µL of tested compound solution or control (okhotoside A1-1 (7)) were added to 90 µL of erythrocyte suspension in V-bottom 96-well plates and exposed for 1 h at 37 °C. Next, centrifugation at 900× g for 10 min on a laboratory centrifuge LMC-3000 (Biosan, Riga, Latvia), led to separation of layers, and 80 µL of supernatant was carefully decanted and transferred into new flat-plate for each. The values of erythrocyte lysis were measured on microplate photometer Multiskan FC (Thermo Fisher Scientific, Waltham, MA, USA) at λ = 570 nm as hemoglobin concentration in supernatant. The effective dose, causing lysis of 50% erythrocytes (ED50), was calculated with SigmaPlot 14.0 software. All the experiments were carried out in triple repetitions, p ≤ 0.05.

The subject of series [3] is T-47D cells. Briefly: cells. Conditions: MTT, 24 h, read-out: Cytotoxicity, IC50, T-47D. Type of series: cell-based, human.
Text: as §1
(§3) The concentrations of tested glycosides were 0.1–50 µM; positive controls were cisplatin and okhotoside A1-1 (7). Methodology: to each well of 96-well plates, the cell suspension (180 µL) with solution (20 µL) of tested glycoside in a certain concentration was placed (MCF-10A, MCF-7, T-47D, and MDA-MB-231—7 × 10^3 cells per well) and incubated in the atmosphere with 5% CO2 at 37 °C for 24 h. Then, the solutions of tested compounds with medium were replaced by 100 µL of fresh medium, and 10 µL of 3-(4,5-dimethylthiazol-2-yl)-2,5-diphenyltetrazolium bromide (MTT) (PanReac, AppliChem, Darmstadt, Germany) stock solution (5 mg/mL) was added to each well and incubated for 4 h, followed by the addition of 100 µL of SDS-HCl solution (1 g SDS/10 mL d-H2O/17 µL 6 N HCl) and further incubated for 18 h. Multiskan FC microplate photometer (Thermo Fisher Scientific, Waltham, MA, USA) was used to measure the absorbance of the converted dye formazan at 570 nm. The concentration caused the 50% cell metabolic activity inhibition (IC50) expresses the cytotoxic activity of each glycoside. The experiments were conducted in triplicate, p ≤ 0.05.

Series [4] deals with MCF-7 cells. Briefly: cells. Type of series: cell-based, human. As to conditions: MTT, 24 h, read-out: Cytotoxicity, IC50, MCF-7.
Text: as §1, §3

The test system of series [5] is MCF-10A cells. Kind of series: Colony formation (clonogenic) assay, MCF-10A. Type of series: cell-based, human. The procedure:
The influence of glycosides on colony formation by MCF-10A or MDA-MB-231 cells was tested by the clonogenic assay. Cell density: 0.3 × 10^2/mL for MDA-MB-231 and for MCF-10A cells per well; incubation conditions: 10–12 days, 37 °C, atmosphere with 5% CO2; obtained: visible to eye colonies (at least 50 cells per colony); fixation with methanol (25 min); staining with 0.5% solution of crystal violet (25 min); washing and air-drying of plates. The counting of grown colonies was carried out using a BIO-PRINT-Cx4 Edge-Fixed Pad-Container (Vilber, Collégien, France) using Bio-Vision Software user and service manual-v18.01 (Vilber, Collégien, France). The results are presented as colony inhibition in comparison with the control.

Series [6] concerns MDA-MB-231 cells. Kind of series: cells. Type of series: cell-based, human.
Text: as §1, §2

Series [7] relates to MDA-MB-231 cells. Briefly: Wound scratch migration assay. Type of series: cell-based, human. Conditions: 5 μM, 24 h. The procedure: Attached to special migration plate plastic bottom MDA-MB-231 cells were separated by a silicone insert (Culture-insert 2 Well 24, ibiTreat). After removing an insert, the gap between the cells was 500 ± 50 μm. Cell debris and floating cells were deleted, and the fresh culture medium was added. Then, cells were treated with various concentrations of glycosides or culture medium only (vehicle control) and left for 24 hrs. Cell migration into the wound area was observed under a fluorescence microscope (MIB-2-FL, LOMO, Russia) with objective 10× magnification.

Series [8] concerns human erythrocytes. Details: method as in PMID 38132923. As to conditions: studied earlier; ref [8]; cited from earlier work.
Series [9] deals with MCF-10A cells. Briefly: in vitro. Type of series: cell-based, human.
Text: as §1, §2

[10] abbreviates: 48 h, read-out: Cytotoxicity, IC50, 48 h, MCF-10A.
Setting [11] is: 72 h, read-out: Cytotoxicity, IC50, 72 h, MCF-10A.
Where [12] appears, read: MTT, 24 h, read-out: Cytotoxicity, IC50, MCF-10A.
[13] abbreviates: Homo sapiens, MDA-MB-231, 48 h, read-out: Cytotoxicity, IC50, 48 h, MDA-MB-231.
Where [14] appears, read: Homo sapiens, MDA-MB-231, 72 h, read-out: Cytotoxicity, IC50, 72 h, MDA-MB-231.
Where [15] appears, read: Homo sapiens, MDA-MB-231, MTT, 24 h, read-out: Cytotoxicity, IC50, MDA-MB-231.

Read-outs that look alike come from different tables or passages of the source.

The IC50 is the point on the concentration scale where inhibition reaches its midpoint. For the molecule `CO[C@@H]1[C@@H](O)[C@H](O[C@@H]2[C@@H](O)[C@H](O[C@H]3[C@H](O)[C@@H](O[C@@H]4OC[C@@H](O)[C@H](O)[C@H]4O)[C@H](O[C@H]4[C@H](O[C@H]5CC[C@]6(C)C7=CC[C@]8(C)[C@@H]([C@@](C)(O)C(=O)CC=C(C)C)CC[C@@]8(C)C7CC[C@H]6C5(C)C)OC[C@@H](OS(=O)(=O)[O-])[C@@H]4O)O[C@@H]3C)O[C@H](COS(=O)(=O)[O-])[C@H]2O)O[C@H](COS(=O)(=O)[O-])[C@H]1O.[Na+].[Na+].[Na+]` (stereo partly drawn) [Conicospermiumoside A7-1 (4), 3β-O-{6-O-sodium sulfate-3-O-methyl-β-D-glucopyranosyl-(1→3)-6-O-sodium sulfate-β-D-glucopyranosyl-(1→4)-[(1→2)-β-D-xylopyranosyl]-β-D-quinovopyranosyl-(1→2)-4-O-sodium sulfate-β-D-xylopyranosyl}-(20R)-hydroxy-22-oxo-lanosta-9(11),24-diene], the IC50 is 35.5 ± 1.59 µM in series [1] (setting [10]); 11.1 ± 0.57 µM in series [1] (setting [11]); 40.2 ± 2.1 µM in series [1] (setting [12]); 19.7 ± 1.01 µM in series [3] (Homo sapiens, T47D); greater than 50 µM in series [4] (Homo sapiens, MCF7); 15.3 ± 1.01 µM in [6] (setting [13]). Moreover, the IC50 amounted to 11.2 ± 0.73 µM in [6] (setting [14]) and 4.78 ± 0.23 µM in series [6] (setting [15]). Besides, the HC50 in [2] came out at 360 ± 40 nM. For the same molecule, the “Influence on colony formation and growth of MCF-10A cells” value in series [5] (2 μM) is “did not influence”. The “Tumor cell selectivity index (SI), IC50 MCF-10A / IC50 MDA-MB-231” value in series [6] (48 h) came out at 2.32; in [6] (72 h) it was 0.99.

A word on the inhibition: it is the share of the control response that was lost under treatment. Consider `C=C(C)CCC[C@]1(C)OC(=O)C23CC[C@H]4C(=CC[C@H]5C(C)(C)C(O[C@@H]6OC[C@@H](OS(=O)(=O)O)[C@H](O)[C@H]6O[C@@H]6O[C@H](CO)[C@@H](O[C@@H]7O[C@H](CO)[C@@H](O)[C@H](O[C@@H]8O[C@H](CO)[C@@H](O)[C@H](OC)[C@H]8O)[C@H]7O)[C@H](O)[C@H]6O[C@@H]6OC[C@@H](O)[C@H](O)[C@H]6O)CC[C@]45C)[C@]2(C)C[C@H](OC(C)=O)C31` (some centres unmarked) [Okhotoside B1 (8), okhotoside B1], for which, in [7], the “Constraint on cell motility (migration) of MDA-MB-231 cells” value was determined as 97%. For the same molecule, the IC50 in series [1] (setting [10]) came out at 15.5 ± 0.81 µM; in series [1] (setting [11]), 16.5 ± 0.98 µM; in series [1] (setting [12]), 41 ± 0.81 µM; in [3] (Homo sapiens, T47D) it was 20.3 ± 0.85 µM; in [4] (Homo sapiens, MCF7), 42.9 ± 2 µM; in series [6] (setting [13]) it was 11.7 ± 1 µM. In addition, the IC50 in series [6] (setting [14]) is 2.92 ± 0.07 µM; in [6] (setting [15]) it was 11.3 ± 0.2 µM. In addition, in [2], the HC50 turned out to be 1050 ± 120 nM. For the same molecule, in [5] (Homo sapiens, MCF-10A, 5 μM, % of the control), the inhibition at 5 µM is 40.2%. Moreover, the “Tumor cell selectivity index (SI), IC50 MCF-10A / IC50 MDA-MB-231” value in series [6] (24 h) is reported as 3.61; in [6] (48 h), 1.32; in series [6] (72 h) it was 5.65.

For `CO[C@@H]1[C@@H](O)[C@H](O[C@@H]2[C@@H](O)[C@H](O[C@H]3[C@H](O)[C@@H](O[C@@H]4OC[C@@H](O)[C@H](O)[C@H]4O)[C@H](O[C@H]4[C@H](O[C@H]5CC[C@]6(C)C7CC[C@]8(C)[C@@H]([C@@](C)(O)C(=O)CC=C(C)C)CC[C@@]8(C)C7=CC[C@H]6C5(C)C)OC[C@@H](OS(=O)(=O)[O-])[C@@H]4O)O[C@@H]3C)O[C@H](COS(=O)(=O)[O-])[C@H]2O)O[C@H](COS(=O)(=O)[O-])[C@H]1O.[Na+].[Na+].[Na+]` (some centres unmarked) [djakonovioside F1 (15), djakonovioside F1], the “Hemolytic activity (in words)” value in series [8] is on record as “highly active”.

“DS-okhotoside B1 [DS-okhotoside B1 (8a)]”: the IC50 in [9] (setting [10]) is 5.81 ± 0.46 µM; in series [9] (setting [11]), 2.77 ± 0.25 µM; in series [9] (setting [12]), 9.87 ± 0.73 µM; in series [3] it was 9.62 ± 0.3 µM; in series [4], 18.8 ± 0.71 µM; in [6] (48 h, read-out: Cytotoxicity, IC50, 48 h, MDA-MB-231), 2.63 ± 0.14 µM. In addition, the half-maximal inhibitory concentration (IC50) in series [6] (72 h, read-out: Cytotoxicity, IC50, 72 h, MDA-MB-231) came to 0.6 ± 0.03 µM; in series [6] (MTT, 24 h, read-out: Cytotoxicity, IC50, MDA-MB-231), 1.09 ± 0.08 µM. For the same molecule, in series [2], the “ED50, Erythrocytes (hemolytic activity)” value stood at 0.33 ± 0.03 µM. For the same molecule, the “Influence on colony formation and growth of MCF-10A cells” value in series [5] (0.5 μM) is “did not influence”. In addition, the “Tumor cell selectivity index (SI), IC50 MCF-10A / IC50 MDA-MB-231” value in [6] (24 h) is 9.06; in [6] (24 h, listed as 8a), roughly 10; in series [6] (48 h), 2.21; in series [6] (72 h) it was 4.62.
